# Laboratory results from patent US7713559B2, “Amorphous water-soluble calcium citrate salts and method of making and using same” (Kraft Foods Global Brands LLC, priority 2004, dated 2010).
# Tests used:
# [1] = pH and initial solution appearance of powders added to water at 1 percent; assay type: physicochemical; settings: powder added to water at a level of 1 percent
# Method: Powders prepared according to the present invention, as described above, were added to water at a level of 1 percent to measure pH and assess initial solution appearance. The crystalline commercial 3:2 mole ratio TCC reference material was included for comparison.
# [2] = dissolution in water and freedom from haze and sediment at 350 mg calcium per eight fluid ounce serving; assay type: physicochemical
# Description: The solution remained completely free of haze and sediment for at least two days of storage at room temperature. Similar or even better results were obtained from the salts prepared having calcium:citrate mole ratios lower than 2:2, even when dissolved in water at higher concentrations.
# These powders, in spite of the sediment produced, would provide very acceptable performance in many, if not most, food applications, including instant beverage mixes and acidified RTD beverages.
# This behavior might also be acceptable in some situations (i.e., opaque instant beverage mixes), but appears to represent a practical upper limit for applications that require high levels of soluble calcium and/or require a sediment-free transparent appearance.
# As an alternative to freeze drying, an amorphous 2:2 mole ratio calcium citrate salt, using the same ingredients as in Example 1, was also successfully produced via spray drying (i.e., pilot scale drying using standard operating conditions and procedures). In this case, chilled calcium hydroxide and citric acid solutions were combined and rapidly spray dried before solidification or sediment formation could occur. […] In a large scale commercial process, the citric acid and calcium hydroxide (or other suitable reagents) would be beneficially combined just prior to spray drying to limit the potential for solidification or sediment formation.
# One batch of the chilled citric acid solution was poured into a mix tank jacketed with cooling water and one batch of calcium hydroxide suspension was added with stirring. […] The clear solution was immediately pumped into a semi-works scale spray dryer, fitted with an atomizing nozzle, at a flow rate of about 0.5 kg per minute. Additional batches of citric acid solution and calcium hydroxide suspension were similarly added to the mix tank as needed to prevent complete emptying. A sample of fine white powder was collected from the spray dryer after ten minutes of operation. […] After a further fifteen minutes, the cooling water was shut off from the jacketed mix tank. […] In less than one hour, the atomizing nozzle and pipe between the mix tank and the spray dryer became plugged with an accumulated deposit of insoluble crystalline calcium citrate.
# [3] = shelf life testing of calcium-fortified RTD beverage; assay type: physicochemical; settings: CRYSTAL LIGHT RTD lemon beverage
# Method: Fortified RTD beverages were formulated with several forms of calcium citrate. The visual appearance, flavor, and stability of the products were evaluated over a seven-month period by an experienced panel. Identical samples of each fortified beverage were prepared for shelf life testing under both ambient (22° C.) and refrigerated (4° C.) storage conditions.
# The freeze dried amorphous 2:2 mole ratio calcium citrate salt (17% calcium) of Example 1 was successfully used to fortify a ready-to-drink sugar-free lemon-flavored beverage (CRYSTAL LIGHT®) with 350 mg calcium per eight fluid ounce serving (“excellent source of calcium” level). To formulate the calcium-fortified powdered mix, eight fluid ounces of commercial CRYSTAL LIGHT® RTD beverage mix was mixed thoroughly with 2 g of the freeze dried amorphous 2:2 mole ratio calcium citrate salt.
# [4] = calcium-fortified powdered instant drink mixes reconstituted with cold water
# Method: One sample of the amorphous salt (2.0 g) was combined with 17.0 g sweetened Cherry Kool-Aid® powdered instant drink mix in a 400 ml beaker. The powdered drink mix contained sugar, fructose, citric acid, calcium phosphate (not a significant source of calcium), artificial flavor, artificial colors, and ascorbic acid. Another sample of the amorphous salt (2.0 g) was combined with 2.0 g artificially-sweetened Lemon CRYSTAL LIGHT® powdered instant drink mix and placed in a 400 ml beaker. The powdered drink mix contained citric acid, potassium citrate, maltodextrin, aspartame, magnesium oxide, natural flavor, lemon juice solids, acesulfame potassium, artificial colors, and BHA.
# [5] = room temperature; cited from earlier work
# [6] = freeze dried powders of Example 1 or commercial salts, room temperature water, 350 mg calcium per eight fluid ounce serving
compound,measurement,setting,value
"O=C([O-])CC(O)(CC(=O)O)C(=O)O.O=C([O-])CC(O)(CC(=O)O)C(=O)O.[Ca+2] [1:2, monocalcium citrate]",Initial Solution Appearance,[1],No haze; no sediment
same,Solution pH,[1],3.4
"O=C([O-])CC(O)(CC(=O)O)C(=O)[O-].[Ca+2] [2:2, dicalcium citrate]",Initial Solution Appearance,[1],No haze; no sediment
same,Solution pH,[1],4.1
same,time solution remained completely free of haze and sediment,"[2]; freeze dried powder, 2 g in 240 ml water, storage at room temperature",at least two
same,dissolution behaviour on addition to water,[2]; [6],instantly dissolving clear solution
same,dissolution in cold water,"[2]; larger spray dryer, sample collected after ten minutes of operation, feed cooled, 350 mg calcium per eight fluid ounces",rapidly dissolved in cold water without haze or precipitate
same,dissolution in water,"[2]; larger spray dryer, sample collected after thirty minutes, cooling water shut off",did not dissolve completely in water
same,dissolution behaviour on addition to water,"[2]; spray dried salt of Example 2 (pilot scale), 2 g in 240 ml room temperature water, 350 mg calcium per eight ounce serving",instantly dissolving clear solution
same,time solution remained completely free of sediment,"[2]; spray dried salt of Example 2 (pilot scale), room temperature",at least three
same,sediment in fortified RTD beverage during shelf life evaluation,"[3]; 350 mg calcium per eight fluid ounces, seven-month period, room temperature (22° C.) and refrigeration (4° C.)",remained sediment free
same,dissolution when water was added to fortified drink mix,"[4]; 2.0 g salt with Cherry Kool-Aid or Lemon CRYSTAL LIGHT mix, eight fluid ounces cold water, no stirring",dissolved immediately
same,time reconstituted beverage remained free of sediment,"[4]; Cherry Kool-Aid and Lemon CRYSTAL LIGHT mixes, 350 mg calcium per serving",at least 24 hours
"TCC tetrahydrate [3:2*, reference compound]","haze and sediment produced at first, on or soon after addition to water",[2]; 350 mg calcium per eight fluid ounce serving,"immediately produced a large amount of a coarse, gritty white sediment"
same,dissolution behaviour on addition to water,[2]; [6],did not completely disperse in water
same,sediment in fortified RTD beverage upon admixture of the ingredients,[3]; amounts to provide the same level of calcium,noticeable sediment formation
same,solubility in water,[5],less than 0.1%
same,soluble calcium provided per fluid ounce of water,[5],about 6 mg
same,sediment formation in reconstituted beverage,"[4]; 1.7 g in place of the amorphous salt, Cherry Kool-Aid and Lemon CRYSTAL LIGHT mixes",large amounts of coarse gritty sediment were formed immediately
same,dissolution of the sediment,[4]; with rapid stirring or with the passage of time,did not dissolve
sesqui-calcium citrate [1.5:2],Initial Solution Appearance,[1],No haze; no sediment
same,Solution pH,[1],3.8
